How the values were obtained:
formalin-induced pain = experiment: Formalin test, model of acute tonic pain; assay type: in vivo, rat; conditions: Automated Nociception Analyser, n=6-8
Procedure: Male Sprague-Dawley rats are housed together in groups of three animals under standard conditions with unrestricted access to food and water. All experiments are conducted according to the ethical guidelines for investigations of experimental pain in conscious animals (Zimmerman, 1983)
Assessment of formalin-induced flinching behavior in normal, uninjured rats (body weight 150-180 g) was made with the use of an Automated Nociception Analyser (University of California, San Diego, USA). Briefly, this involved placing a small C-shaped metal band (10 mm wide×27 mm long) on the hindpaw of the rat to be tested. The rats (four rats were included in each testing session) were then placed in a cylindrical plexiglass observation chamber (diameter 30.5 cm and height 15 cm) for 20 min for adaptation purposes prior to being administered drug or vehicle according to the experimental paradigm being followed. After adaptation, individual rats were then gently restrained and formalin (5% in saline, 50 μl, s.c.) was injected into the plantar surface of the hindpaw using a 27G needle. Rats were then returned to their separate observation chambers, each of which were in turn situated upon an enclosed detection device consisting of two electromagnetic coils designed to produce an electromagnetic field in which movement of the metal band could be detected. The analogue signal was then digitised and a software algorithm (LabView) applied to enable discrimination of flinching behaviour from other paw movements. A sampling interval of 1 min was used and on the basis of the resulting response patterns 5 phases of nociceptive behaviour were identified and scored: first phase (P1; 0-5 min), interphase (Int; 6-15 min), second phase (P2; […]), phase 2A (P2A; 16-40 min) and phase 2B (P2B; 41-60 min).
Nociceptive behavior was also determined manually every 5 min by measuring the amount of time spent in each of four behavioral categories: 0, treatment of the injected hindpaw is indistinguishable from that of the contralateral paw; 1, the injected paw has little or no weight placed on it; 2, the injected paw is elevated and is not in contact with any surface; 3, the injected paw is licked, bitten, or shaken. A weighted nociceptive score, ranging from 0 to 3 was calculated by multiplying the time spent in each category by the category weight, summing these products, and dividing by the total time for each 5 min block of time. (Coderre et al., Pain 1993; 54: 43). On the basis of the resulting response patterns, […] of nociceptive behavior were identified and scored: first phase (P1; 0-5 min), interphase (Int; 6-15 min), second phase (P2; […]), phase 2A (P2A; 16-40 min) and phase 2B (P2B; 41-60 min). […]

hASIC1a [1] = target: T1, hASIC1a (Homo sapiens, UniProt P78348); experiment: Calcium-imaging (FLIPR, Fluo-4) of acid (MES)-induced calcium response in ASIC1a expressing HEK293 cells; assay type: cell-based; design: expressed in transfected cells; host or cells: HEK293; conditions: for IC50: calcium mobilization assay, MES-induced calcium response, HEK293, n=3-7; for inhibitory effect on acid-induced hASIC1a activity (dose-response curve): HEK293 transfected with hASIC1a, intracellular calcium, increasing concentrations
T1 sequence (P78348 1-528): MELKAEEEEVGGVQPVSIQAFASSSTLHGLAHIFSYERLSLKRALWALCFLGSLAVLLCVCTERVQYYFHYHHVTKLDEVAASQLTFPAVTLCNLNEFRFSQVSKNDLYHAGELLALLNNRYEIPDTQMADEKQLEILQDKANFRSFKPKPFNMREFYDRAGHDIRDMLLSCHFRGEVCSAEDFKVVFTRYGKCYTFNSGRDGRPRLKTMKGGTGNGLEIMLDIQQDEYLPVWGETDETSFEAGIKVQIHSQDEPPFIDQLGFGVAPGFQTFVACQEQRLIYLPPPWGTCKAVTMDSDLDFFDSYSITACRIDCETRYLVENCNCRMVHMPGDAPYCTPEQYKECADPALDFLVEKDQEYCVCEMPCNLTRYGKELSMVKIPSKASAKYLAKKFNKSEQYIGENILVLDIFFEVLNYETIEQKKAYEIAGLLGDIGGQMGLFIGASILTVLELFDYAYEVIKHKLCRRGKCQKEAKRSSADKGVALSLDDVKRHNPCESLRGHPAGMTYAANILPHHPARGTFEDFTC
Procedure: ASIC1a expressing HEK293 cells are grown in culture medium (DMEM with 10% FBS), in polystyrene culture flasks ([…]) at 37° C. in a humidified atmosphere of 5% CO2. Confluency of cells should be 80-90% on day of plating. Cells are rinsed with 10 ml of PBS and re-suspended by addition of culture medium and trituration with a 25 ml pipette.
The cells are seeded at a density of approximately 1×10^6 cells/ml (100 μl/well) in black-walled, clear bottom, 96-well plates pre-treated with 10 mg/l poly-D-lysin (75 μl/well for ≧30 min). Plated cells were allowed to proliferate for 24 h before loading with dye.
Fluo-4/AM (1 mg, Molecular Probes) is dissolved in 912 μl DMSO. The Fluo-4/AM stock solution (1 mM) is diluted with culture medium to a final concentration of 2 μM (loading solution).
The culture medium is aspirated from the wells, and 50 μl of the Fluo-4/AM loading solution is added to each well. The cells are incubated at 37° C. for 30 min.
After the loading period, the loading solution is aspirated and the cells are washed twice with 100 μl modified Assay Buffer (145 mM NaCl, 5 mM KCl, 5 mM CaCl2, 1 mM MgCl2, 10 mM HEPES, pH 7.4) to remove extracellular dye. Following the second wash, 100 μl modified Assay Buffer is added to each well and the fluorescence is measured in FLIPR™ or FlexStation™ (Molecular Devices, USA), or any other suitable equipment known to the skilled in the art.
Temperature: Room temperature (20-22° C.)
First addition: 50 μl test solution at a rate of 30 μl/sec and a starting height of 100 μl.
Second addition: 50 μl MES solution (20 mM, 5 mM final concentration) at a rate of 35 μl/sec and a starting height of 150 μl.
Reading intervals: pre-incubation—10 sec×7 and 3 sec×3 antagonist phase—3 sec×17 and 10 sec×12
Addition plates (compound test plate and MES plate) are placed on the right and left positions in the FLIPR tray, respectively. Cell plates are placed in the middle position and the ASIC1a program is effectuated. FLIPR will then take the appropriate measurements in accordance with the interval settings above. Fluorescence obtained after stimulation is corrected for the mean basal fluorescence (in modified Assay Buffer).
The MES-induced peak calcium response, in the presence of test substance, is expressed relatively to the MES response alone. Test substances that block the MES-induced calcium response are re-tested in triplicates. Confirmed hits are picked for further characterization by performing full dose-response curves to determine potency of each hit compound as represented by the IC50 values (i.e., the concentration of the test substance which inhibits 50% of the MES-induced calcium response; see, for example, FIGS. 1A, 1B and 1C, and FIGS. 13A and 13B).

hASIC1a [2] = target: T1, hASIC1a; experiment: Whole-cell voltage clamp of pH-evoked response of human ASIC1a stably transfected in CHO cells; assay type: cell-based; design: expressed in transfected cells; conditions: for effect on proton-gated currents from CHO cells expressing hASIC1a: 1 μM, voltage clamp
Procedure: FIG. 3 illustrates the inhibitory effect of Compound A on acid-evoked activation of human ASIC1a stably transfected in CHO cells. […] In this example, the size of the pH-evoked response was determined by measuring the area under the curve of the response (total charge transfer) and normalized to the control response. FIG. 3B depicts an example of an hASIC1a current (whole cell voltage clamp, −60 mV) evoked by a pH 6.8-buffered solution (from pH 7.4) in the presence or absence of Compound A (3 μM).
These endogenous proton-activated inward currents were recorded in the presence and absence of Compound J (1 μM) or Compound K (1 μM) using the whole cell configuration of the patch clamp method (voltage clamp mode).
All experiments are performed at room temperature (20-25° C.) in voltage clamp using conventional whole cell patch clamp methods (Neher, E., et al. (1978) Pfluegers Arch 375:219-228).
Coverslips with the cells are transferred to a 15 μl experimental chamber mounted on the stage of an inverted microscope (IMT-2, Olympus) supplied with Nomarski optics. Cells are continuously superfused with extracellular saline at a rate of 2.5 ml/min. After giga-seal formation, the whole cell configuration is attained by suction. The cells are held at a holding voltage of −60 mV and at the start of each experiment the current is continuously measured for 45 s to ensure a stable baseline. Solutions of low pH (<7) are delivered to the chamber through a custom-made gravity-driven flowpipe, the tip of which is placed approximately 50 μm from the cell. Application is triggered when the tubing connected to the flowpipe is compressed by a valve controlled by the Pulse-software. Initially, low pH (in general, pH 6.5) is applied for 5 s every 60 s. The sample interval during application is 5501s. After stable responses are obtained, the extracellular saline as well as the low-pH solution are switched to solutions containing the compound to be tested. The compound is present until responses of a repeatable amplitude are achieved. Current amplitudes are measured at the peak of the responses, and effect of the compounds is calculated as the amplitude at compound equilibrium divided by the amplitude of the current evoked by the pulse just before the compound was included.
The following salt solutions are used: extracellular solution (mM): NaCl (140), KCl (4), CaCl2 (2), MgCl2 (4), HEPES (10, pH 7.4); intracellular solution (mM): KCl (120), KOH (31), MgCl2 (1.785), EGTA (10), HEPES (10, pH 7.2). In general, compounds for testing are dissolved in 50% DMSO at 500 fold the highest concentration used.
Similar findings are shown in FIG. 3 with the human ASIC1a stably transfected in CHO cells. FIG. 3A compares the dose-response relationship between Compound A and amiloride [determined by measuring the area under the curve of the response (total charge transfer) and normalized to the control response]. […] FIGS. 14A and 14B show similar results for Compounds J and K.

## CCN1CCc2c(-c3cc(F)ccc3OC)cc3c(c2C1)NC(=O)/C3=N/O [Compound B, 5-(5-fluoro-2-methoxyphenyl)-6,7,8,9-tetrahydro-3-(hydroxyimino)-8-ethyl-1H-pyrrolo[3,2-h]isoquinoline-2(3H)-one]
formalin-induced pain
  pain intensity as evaluated by the flinching behavior: dose-dependent reduction of the pain intensity
hASIC1a [1]
  IC50: 20 to 30 nM

## COc1ccc(Cl)cc1-c1cc2c(c3c1CCN(C)C3)NC(=O)/C2=N/O [Compound C, 5-(5-chloro-2-methoxyphenyl)-6,7,8,9-tetrahydro-3-(hydroxyimino)-8-methyl-1H-pyrrolo[3,2-h]isoquinoline-2(3H)-one]
hASIC1a [1]
  IC50: 200 to 300 nM

## Cc1cc(C)cc(-c2cc3c(c4c2CCN(C)C4)NC(=O)/C3=N/O)c1 [Compound D, 5-(3,5-dimethylphenyl)-6,7,8,9-tetrahydro-3-(hydroxyimino)-8-methyl-1H-pyrrolo[3,2-h]isoquinoline-2(3H)-one]
hASIC1a [1]
  IC50: 250 to 350 nM

## CCN1CCc2c(-c3cc(C)cc(C)c3)cc3c(c2C1)NC(=O)/C3=N/O [Compound E, 5-(3,5-dimethylphenyl)-6,7,8,9-tetrahydro-3-(hydroxyimino)-8-ethyl-1H-pyrrolo[3,2-h]isoquinoline-2(3H)-one]
hASIC1a [1]
  inhibitory effect on acid-induced hASIC1a activity (dose-response curve): dose-dependently inhibit

## CCN1CCc2c(-c3cc(C)ccc3C)cc3c(c2C1)NC(=O)/C3=N/O [Compound F, 5-(2,5-dimethylphenyl)-6,7,8,9-tetrahydro-3-(hydroxyimino)-8-ethyl-1H-pyrrolo[3,2-h]isoquinoline-2(3H)-one]
hASIC1a [1]
  inhibitory effect on acid-induced hASIC1a activity (dose-response curve): dose-dependently inhibit

## CCN1CCc2c(-c3cc(Cl)ccc3OC)cc3c(c2C1)NC(=O)/C3=N/O [Compound G, 5-(5-chloro-2-methoxyphenyl)-6,7,8,9-tetrahydro-3-(hydroxyimino)-8-ethyl-1H-pyrrolo[3,2-h]isoquinoline-2(3H)-one]
hASIC1a [1]
  inhibitory effect on acid-induced hASIC1a activity (dose-response curve): dose-dependently inhibit

## CCN1CCc2c(-c3ccccc3OC)cc3c(c2C1)NC(=O)/C3=N/O [Compound J, 8-ethyl-5-(2-methoxy-phenyl)-6,7,8,9-tetrahydro-1H-pyrrolo[3,2-h]isoquinoline-2,3-dione 3-oxime]
hASIC1a [2]
  effect on proton-gated currents from CHO cells expressing hASIC1a: inhibitory effects
hASIC1a [1]
  IC50: 100 to 700 nM

## CCOc1ccccc1-c1cc2c(c3c1CCN(CC)C3)NC(=O)/C2=N/O [Compound K, 5-(2-ethoxy-phenyl)-8-ethyl-6,7,8,9-tetrahydro-1H-pyrrolo[3,2-h]isoquinoline-2,3-dione 3-oxime]
hASIC1a [2]
  effect on proton-gated currents from CHO cells expressing hASIC1a: inhibitory effects
hASIC1a [1]
  IC50: 300 to 1700 nM

## N=C(N)NC(=O)c1nc(Cl)c(N)nc1N [amiloride, reference compound]
hASIC1a [2]; CHO cells, -60 mV, pH 6.8 from pH 7.4
  effect on size of human ASIC1a pH-evoked response (area under the curve, total charge transfer, normalized to control): reduce the human ASIC1a pH-evoked response in a dose-dependent manner

Reference: US7718641B2, “Pyrrolo [3,4-H] isoquinoline compounds and methods for modulating gated ion channels” (Aros Pharma ApS, priority 2005, dated 2010)
